{
  "source": "patent US20240400534A1",
  "about": "“CHEMICAL TOOLS FOR DRUG TARGET IDENTIFICATION AND CHARACTERIZATION” (Dana-Farber Cancer Institute, Inc., priority 2021, published 2024)",
  "origin": "cited, not measured here",
  "target": "USP7 (Homo sapiens, UniProt Q93009)",
  "sequence (Q93009 whole entry)": "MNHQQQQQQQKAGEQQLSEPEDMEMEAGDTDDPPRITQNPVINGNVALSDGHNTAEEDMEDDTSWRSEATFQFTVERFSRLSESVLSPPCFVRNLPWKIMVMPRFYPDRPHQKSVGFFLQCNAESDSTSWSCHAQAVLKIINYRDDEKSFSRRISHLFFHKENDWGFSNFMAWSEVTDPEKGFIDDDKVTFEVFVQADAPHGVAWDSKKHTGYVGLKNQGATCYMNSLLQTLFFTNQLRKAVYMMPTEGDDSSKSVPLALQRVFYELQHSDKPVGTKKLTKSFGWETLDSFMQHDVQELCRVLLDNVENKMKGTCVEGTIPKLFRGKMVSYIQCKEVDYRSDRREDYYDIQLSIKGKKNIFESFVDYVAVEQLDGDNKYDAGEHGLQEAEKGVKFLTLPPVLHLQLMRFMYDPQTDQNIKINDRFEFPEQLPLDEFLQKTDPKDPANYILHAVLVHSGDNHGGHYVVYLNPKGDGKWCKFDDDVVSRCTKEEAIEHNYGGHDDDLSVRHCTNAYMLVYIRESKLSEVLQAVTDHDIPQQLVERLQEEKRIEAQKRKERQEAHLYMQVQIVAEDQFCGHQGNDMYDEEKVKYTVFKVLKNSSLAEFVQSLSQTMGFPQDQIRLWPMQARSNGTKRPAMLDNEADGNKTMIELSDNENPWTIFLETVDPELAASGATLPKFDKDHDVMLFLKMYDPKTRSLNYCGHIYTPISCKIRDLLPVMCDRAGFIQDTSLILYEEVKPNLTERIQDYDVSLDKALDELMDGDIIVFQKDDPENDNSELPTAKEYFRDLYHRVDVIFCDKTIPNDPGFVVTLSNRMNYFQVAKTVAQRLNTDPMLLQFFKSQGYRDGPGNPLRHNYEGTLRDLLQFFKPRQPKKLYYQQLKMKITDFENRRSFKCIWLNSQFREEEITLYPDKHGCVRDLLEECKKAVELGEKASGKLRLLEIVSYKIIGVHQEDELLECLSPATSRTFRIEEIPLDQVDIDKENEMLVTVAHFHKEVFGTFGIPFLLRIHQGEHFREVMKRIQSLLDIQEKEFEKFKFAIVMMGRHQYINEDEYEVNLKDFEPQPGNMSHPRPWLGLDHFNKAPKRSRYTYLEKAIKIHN",
  "details": "selective covalent inhibitor of the DUB USP7",
  "data": [
    {"smiles": "CN1CCN(CCC(=O)Nc2ccc3c(=O)n(CC4(O)CCN(C(=O)[C@@H](CCCNC(=O)c5ccc6c(Cl)c7c(nc6c5)CCCC7)Cc5ccccc5)CC4)cnc3c2)CC1", "note": "[XL177A]", "values": [
      {"measurement": "IC50", "result": 0.3, "unit": "nM"}
    ]}
  ]
}
